Source: ChEMBL document CHEMBL2311281, “Novel berberine triazoles: synthesis, antimicrobial evaluation and competitive interactions with metal ions to human serum albumin” (Bioorg Med Chem Lett, 2013)
Values after ≈ are worked out from the molar mass of the structure shown.

Assays:
Format in all cases: functional
[1] = system: Pseudomonas aeruginosa; assay: Antibacterial activity against Pseudomonas aeruginosa by two fold serial dilution method
[2] = system: Bacillus subtilis; assay: Antibacterial activity against Bacillus subtilis by two fold serial dilution method
[3] = system: Staphylococcus aureus; assay: Antibacterial activity against Staphylococcus aureus ATCC 25923 by two fold serial dilution method
[4] = system: Escherichia coli; assay: Antibacterial activity against Escherichia coli DH52 by two fold serial dilution method
[5] = system: Staphylococcus aureus; assay: Antibacterial activity against methicillin-resistant Staphylococcus aureus N315 by two fold serial dilution method
[6] = system: Proteus vulgaris; assay: Antibacterial activity against Proteus vulgaris by two fold serial dilution method
[7] = system: Shigella dysenteriae; assay: Antibacterial activity against Shigella dysenteriae by two fold serial dilution method
[8] = system: Micrococcus luteus; assay: Antibacterial activity against Micrococcus luteus ATCC 4698 by two fold serial dilution method

SMILES | MIC [1] | MIC [2] | MIC [3] | MIC [4] | MIC [5] | MIC [6] | MIC [7] | MIC [8]
Clc1cccc(CN(CCBr)CCn2cncn2)c1 | 256 µg/mL (≈ 745 µM) | 256 µg/mL (≈ 745 µM) | 128 µg/mL (≈ 372 µM) | 128 µg/mL (≈ 372 µM) | 256 µg/mL (≈ 745 µM) | > 512 µg/mL | 256 µg/mL (≈ 745 µM) | 64 µg/mL (≈ 186 µM)
Clc1ccc(CN(CCBr)CCn2cncn2)c(Cl)c1 | 128 µg/mL (≈ 339 µM) | 256 µg/mL (≈ 677 µM) | 64 µg/mL (≈ 169 µM) | 32 µg/mL (≈ 84.6 µM) | 256 µg/mL (≈ 677 µM) | 128 µg/mL (≈ 339 µM) | 128 µg/mL (≈ 339 µM) | 32 µg/mL (≈ 84.6 µM)
Clc1ccc(CN(CCBr)CCn2cncn2)cc1Cl | 128 µg/mL (≈ 339 µM) | 256 µg/mL (≈ 677 µM) | 64 µg/mL (≈ 169 µM) | 32 µg/mL (≈ 84.6 µM) | 256 µg/mL (≈ 677 µM) | 256 µg/mL (≈ 677 µM) | 128 µg/mL (≈ 339 µM) | 32 µg/mL (≈ 84.6 µM)
Clc1ccccc1CN(CCBr)CCn1cncn1 | 128 µg/mL (≈ 372 µM) | 256 µg/mL (≈ 745 µM) | 128 µg/mL (≈ 372 µM) | 64 µg/mL (≈ 186 µM) | 256 µg/mL (≈ 745 µM) | 512 µg/mL (≈ 1490 µM) | 256 µg/mL (≈ 745 µM) | 64 µg/mL (≈ 186 µM)
Fc1cccc(CN(CCBr)CCn2cncn2)c1 | 128 µg/mL (≈ 391 µM) | 256 µg/mL (≈ 782 µM) | 64 µg/mL (≈ 196 µM) | 64 µg/mL (≈ 196 µM) | 128 µg/mL (≈ 391 µM) | 256 µg/mL (≈ 782 µM) | 64 µg/mL (≈ 196 µM) | 64 µg/mL (≈ 196 µM)
Fc1ccc(CN(CCBr)CCn2cncn2)c(F)c1 | 128 µg/mL (≈ 371 µM) | 256 µg/mL (≈ 742 µM) | 64 µg/mL (≈ 185 µM) | 32 µg/mL (≈ 92.7 µM) | 128 µg/mL (≈ 371 µM) | 128 µg/mL (≈ 371 µM) | 64 µg/mL (≈ 185 µM) | 32 µg/mL (≈ 92.7 µM)
Fc1ccccc1CN(CCBr)CCn1cncn1 | 128 µg/mL (≈ 391 µM) | 256 µg/mL (≈ 782 µM) | 64 µg/mL (≈ 196 µM) | 32 µg/mL (≈ 97.8 µM) | 128 µg/mL (≈ 391 µM) | 256 µg/mL (≈ 782 µM) | 64 µg/mL (≈ 196 µM) | 64 µg/mL (≈ 196 µM)
COc1ccc2cc3[n+](cc2c1OC)CCc1cc2c(cc1-3)OCO2 [BERBERINE] | 256 µg/mL | > 512 µg/mL | 512 µg/mL | > 512 µg/mL | 128 µg/mL | 128 µg/mL | 256 µg/mL | > 512 µg/mL
O=C(N[C@H](CO)[C@H](O)c1ccc([N+](=O)[O-])cc1)C(Cl)Cl [CHLORAMPHENICOL] | 32 µg/mL (≈ 99 µM) | 32 µg/mL (≈ 99 µM) | 16 µg/mL (≈ 49.5 µM) | 32 µg/mL (≈ 99 µM) | 16 µg/mL (≈ 49.5 µM) | 32 µg/mL (≈ 99 µM) | 32 µg/mL (≈ 99 µM) | 8 µg/mL (≈ 24.8 µM)
CCn1cc(C(=O)O)c(=O)c2cc(F)c(N3CCNCC3)cc21 [NORFLOXACIN] | 16 µg/mL (≈ 50.1 µM) | 1 µg/mL (≈ 3.13 µM) | 0.5 µg/mL (≈ 1.57 µM) | 16 µg/mL (≈ 50.1 µM) | 8 µg/mL (≈ 25.1 µM) | 8 µg/mL (≈ 25.1 µM) | 4 µg/mL (≈ 12.5 µM) | 2 µg/mL (≈ 6.26 µM)
